Where two headings read alike, the source gives them in different places.
Columns and labels:
[1] = tested on: SL1 Δbulge RNA; assay type: binding, SARS-CoV-2
[2] = tested on: SARS-CoV-2 SL1 RNA (SL1 wt); assay type: binding; conditions: for wLOGSY factor / T2 reduction [%] / CSP [Hz]: 10 μM SL1 wt, 200 μM ligand; for wLOGSY factor / T2 reduction [%]: pH 6.2; for T2 reduction [%]: CPMG 100 vs 5 ms; for Rank: FBS ranking from summed ranks of CSP, wLOGSY and T2 results; for CSP [Hz]: ligand 1H CSP, [RNA]:[ligand] 1:20, pH 6.2; for FBS binding to SL1, in words: ligand-detected NMR
[3] = pH 6.2
[4] = tested on: β-Globin-Nanoluciferase mRNA; assay: Cell-free translation assay in rabbit reticulocyte lysate, Nanoluciferase readout; assay type: biochemical; conditions: 0.2 μM mRNA, 2 μM compound
[5] = target: SL1 wt RNA; assay: NMR-based KD estimation, ligand-detected 1D-1H titration; assay type: binding, SARS-CoV-2
[6] = tested on: SL1 Δbulge-Nanoluciferase mRNA; assay type: biochemical, SARS-CoV-2
[7] = tested on: SL1 RNA; assay: RNA-detected NMR binding site mapping (2D-1H,1H-TOCSY and 1D-1H); parameters: species or system SARS-CoV-2; conditions: for 1H,1H CSPs [ppm] C15H5-H6 / 1H,1H CSPs [ppm] C16H5-H6 / 1H,1H CSPs [ppm] C19H5-H6 / 1H,1H CSPs [ppm] C20H5-H6 / 1H,1H CSPs [ppm] C21H5-H6 / 1H,1H CSPs [ppm] C28H5-H6 / 1H,1H CSPs [ppm] C32H5-H6 / 1H,1H CSPs [ppm] C33H5-H6 / 1H,1H CSPs [ppm] C34H5-H6 / 1H,1H CSPs [ppm] U9H5-H6 / 1H,1H CSPs [ppm] U10H5-H6 / 1H,1H CSPs [ppm] U11H5-H6 / 1H,1H CSPs [ppm] U13H5-H6 / 1H,1H CSPs [ppm] U17H5-H6 / 1H,1H CSPs [ppm] U18H5-H6 / 1H,1H CSPs [ppm] U25H5-H6: 2D TOCSY, RNA 150 μM, compound 1 mM, 298 K; for 1H CSPs [ppm] A12H2 / 1H CSPs [ppm] A29H2: RNA-detected 1D-1H
[8] = tested on: SL1 (wt)-Nanoluciferase mRNA; assay type: biochemical, SARS-CoV-2
[9] = Suppl. Table 7, ligand constant at 100, SL1 wt RNA concentration 0-200, read-out: KDest
[10] = ligand 100 μM, SL1 RNA 0 to 200 or 250 μM, 298 K, 600 MHz, pH 6.2, read-out: KD est
[11] = Suppl. Table 7, ligand constant at 100, SL1 wt RNA concentration 0-250, read-out: KDest

Structure (SMILES) | FBS result (CSP, wLOGSY, T2 reduction) in words [1] | wLOGSY factor [2] | T2 reduction [%] [2] | Rank ([2]; SL1 wt) | CSP [Hz] [2] | Kd [5, 10] | 1H,1H CSPs [ppm] C16H5-H6 [7] | 1H,1H CSPs [ppm] C19H5-H6 [7] | 1H,1H CSPs [ppm] C20H5-H6 [7] | 1H,1H CSPs [ppm] C21H5-H6 [7] | 1H,1H CSPs [ppm] C28H5-H6 [7] | 1H,1H CSPs [ppm] C33H5-H6 [7] | 1H,1H CSPs [ppm] C34H5-H6 [7] | 1H,1H CSPs [ppm] U9H5-H6 [7] | 1H,1H CSPs [ppm] U10H5-H6 [7] | 1H,1H CSPs [ppm] U11H5-H6 [7] | 1H,1H CSPs [ppm] U13H5-H6 [7] | 1H,1H CSPs [ppm] U17H5-H6 [7] | 1H,1H CSPs [ppm] U18H5-H6 [7] | 1H,1H CSPs [ppm] U25H5-H6 [7] | other results
CN(C)CC(=O)Nc1nc2ccc([N+](=O)[O-])cc2s1 [A.14] | no effects | 0.46 | 100.00% | 9 | 22.20 Hz |  |  |  |  |  |  |  |  |  |  |  |  |  |  |  | CSP values relative to A.2 ([2]; ligand CSP, SL1 wt): 2–3 times; solubility, in words [3]: poor solubility
COc1ccc2nc(NC(=O)CN3CCC[C@H](N)C3)sc2c1 [A.36] | no effects | 0.82 | 100.00% | 2 | 30.18 Hz | 218 ± 90 µM | 0.0076 ppm | 0.0036 ppm | 0.0029 ppm | 0.0010 ppm | 0.0359 ppm | 0.0057 ppm | 0.0079 ppm | 0.0100 ppm | 0.0089 ppm | 0.0063 ppm | 0.0308 ppm | 0.0045 ppm | 0.0039 ppm | 0.0120 ppm | effect on translation of β-globin mRNA, in words [4]: increased translation efficiency; Kd [5, 9]: 218 µM; FBS binding to SL1, in words ([2]; SL1 wt): positive effect on SL1 binding; effect on translation of SL1 Δbulge mRNA, in words [6]: increased translation efficiency; binding site / selectivity for the bulge from CSP and LB mapping, in words [7]: weaker binding characteristics; 1H,1H CSPs [ppm] C15H5-H6 [7]: 0.0010 ppm; 1H,1H CSPs [ppm] C32H5-H6 [7]: 0.0186 ppm; 1H CSPs [ppm] A12H2 [7]: 0.0727 ppm; effect on translation of SL1 wt mRNA, in words [8]: nonspecific effects
CNC(=O)Nc1nc2c(OC)cc(OC)cc2s1 [A.11] | no effects | 1.51 | 93.00% | 19 | 4.50 Hz |  | 0.0020 ppm | 0.0036 ppm | 0.0045 ppm | 0.0061 ppm | 0.0130 ppm | 0.0010 ppm | 0.0025 ppm | 0.0040 ppm | 0.0072 ppm | 0.0311 ppm | 0.0216 ppm | 0.0010 ppm | 0.0043 ppm | 0.0045 ppm | 1H,1H CSPs [ppm] C15H5-H6 [7]: 0.0010 ppm; 1H,1H CSPs [ppm] C32H5-H6 [7]: 0.0063 ppm; 1H CSPs [ppm] A12H2 [7]: 0.0400 ppm; 1H CSPs [ppm] A29H2 [7]: 0.0040 ppm; effect on translation of SL1 wt mRNA, in words [8]: no inhibition
CNC(=N)Nc1nc2ccc(OC)cc2s1 [A.4] |  | 1.21 | 77.83% | 20 | 16.14 Hz | 102 ± 8 µM | 0.0103 ppm | 0.0293 ppm | 0.0526 ppm | 0.0441 ppm | 0.1355 ppm | 0.0050 ppm | 0.0072 ppm | 0.0130 ppm | 0.0146 ppm | 0.0030 ppm | 0.0999 ppm | 0.0288 ppm | 0.0191 ppm | 0.0099 ppm | effect on translation of β-globin mRNA, in words [4]: boost; CSP [Hz] [1]: 8.19 Hz; Rank [1]: 1; T2 reduction [%] [1]: 90.18%; wLOGSY factor [1]: 0.69; Kd [5, 11]: 102 µM; FBS binding to SL1, in words ([2]; SL1 wt): strongest FBS effects; effect on translation of SL1 Δbulge mRNA, in words [6]: inhibitory effect; binding site / selectivity for the bulge from CSP and LB mapping, in words [7]: bound the bulge less selectively; 1H CSPs [ppm] A12H2 [7]: 0.1560 ppm; 1H CSPs [ppm] A29H2 [7]: 0.0670 ppm; effect on translation of SL1 wt mRNA, in words [8]: inhibitory effect
CCN(CCN[C@@H]1CCCN(CC(=O)Nc2nc3ccc(OC)cc3s2)C1)c1cccc(O)c1 [A.51] |  | 0.00 | 88.75% | 25 | 19.56 Hz |  |  |  |  |  |  |  |  |  |  |  |  |  |  |  | CSP [Hz] [1]: 4.44 Hz; Rank [1]: 10; T2 reduction [%] [1]: 42.57%; wLOGSY factor [1]: 0.00; Kd [5, 9]: 740 µM
COc1ccc(-c2nnc(NC(=O)CN(C)C)s2)cc1OC [A.31] | no effects | 1.71 | 100.00% | 1 | 24.42 Hz | 146 ± 13 µM | 0.0073 ppm | 0.0042 ppm | 0.0021 ppm | 0.0010 ppm | 0.0228 ppm | 0.0067 ppm | 0.0204 ppm | 0.0104 ppm | 0.0112 ppm | 0.0256 ppm | 0.0206 ppm | 0.0067 ppm | 0.0021 ppm | 0.0122 ppm | Kd [5, 9]: 146 µM; binding site / selectivity for the bulge from CSP and LB mapping, in words [7]: weaker binding characteristics; 1H,1H CSPs [ppm] C15H5-H6 [7]: 0.0032 ppm; 1H,1H CSPs [ppm] C32H5-H6 [7]: 0.0130 ppm; 1H CSPs [ppm] A12H2 [7]: 0.0630 ppm; 1H CSPs [ppm] A29H2 [7]: 0.0000 ppm; effect on translation of SL1 wt mRNA, in words [8]: nonspecific effects
CC(=O)c1ccc(NC(=O)CN2CCCC2)cc1 [B] |  |  |  |  |  | 150 ± 46 µM | 0.0120 ppm | 0.0092 ppm | 0.0030 ppm | 0.0058 ppm | 0.0263 ppm | 0.0110 ppm | 0.0021 ppm | 0.0063 ppm | 0.0122 ppm | 0.0220 ppm | 0.0256 ppm | 0.0061 ppm | 0.0064 ppm | 0.0085 ppm | Kd [5, 11]: 150 µM; 1H,1H CSPs [ppm] C15H5-H6 [7]: 0.0208 ppm; 1H,1H CSPs [ppm] C32H5-H6 [7]: 0.0336 ppm; solubility, in words [3]: precipitation

— paper PMC12356538, “Targeting the SARS-CoV‑2 RNA Translation Initiation Element SL1 by Molecules of Low Molecular Weight” (Journal of the American Chemical Society, 2025)
